{"source": "patent US6458580B1", "about": "“Fungal sulphur source and method of using the same” (Commonwealth Scientific and Industrial Research Organisation, priority 1997, dated 2002)", "system": "Cellutolytic Bacteria", "experiment": "Effect of infusion on cellulolytic bacteria in rumen fluid (most probable number)", "format": "in vivo", "parameters": "Cellutolytic Bacteria, MPA: unit not given here", "settings": "individual sheep and Aver. n = 13; for Cellutolytic Bacteria, MPA: MPA infused at 192 mg Sulphur/sheep/day; for Cellutolytic Bacteria, log (+): versus control period", "method": "Feed was prepared as previously described (see example 4). Initially 22 sheep were fed 1 kg of alkali straw/day in the animal house for 4 days to select out sheep not eating the diet. 19 sheep were weighted and transferred to metabolism cages and feed the alkali straw diet ad-lib. Sheep were fed and on the following day the feed refusal weighted and if less then 100 g remained a further 100 g was fed; if 100-200g of feed remained the sheep was given the same amount of feed; if over 200 g of feed was left the sheep was given 100 g less feed. Over the following week another 6 sheep were moved out of the experiment (usually due to very low or erratic intakes). […] After 14 days infusion the collection period of 7 days commenced. At the end of the collection period samples of rumen digesta were taken for microbiology and other analyses. Rumen fluid was collected and fungal zoospores and total bacteria assessed as described in example 4 (the total bacteria were assessed on the same medium but without antibiotics). Cellulolytic bacteria were assessed by a most probable number count. Rumen fluid was serially diluted and subsamples of each dilution inoculated into 5 culture tubes containing an anaerobic medium containing rumen fluid and strips of filter paper. After incubation the presence of cellulolytic bacteria was detected by degradation of the paper and the numbers of positive tubes compared to tables to give a number of these bacteria in the original sample. Following the last sampling the infusion was stopped in the first group of sheep and on the following day the infusion treatment was begun in the other group of seven sheep. The second period (the crossover) was conducted in the same way as the first period with the same samples being taken at the same times.", "note": "Where “and” joins values, the source holds several entries; their conditions need not be identical. Equal values may be shown once."}
{"compound": "O=C(O)CCS", "note": "[MPA, 3-mercaptopropanoic acid]", "values": [{"measurement": "Cellutolytic Bacteria, MPA", "value": "6.96 × 10^8 and 0.556 × 10^8 and 4.42 × 10^8 and 1.84 × 10^8 and 2.173 × 10^8 and 3.447 × 10^8 and 1.086 × 10^8 and 0.912 × 10^8 and 3.219 × 10^8 (3×) and 18.37 × 10^8 and 3.22 × 10^8"}, {"measurement": "Cellutolytic Bacteria, MPA", "setting": "mean", "value": "4.05 × 10^8"}, {"measurement": "Cellutolytic Bacteria, log (+)", "value": "0.58 log and −0.52 log and 0.38 log and −0.24 log (2×) and 0.07 log and 0.50 log and 0.12 log and 1.76 log and 0.76 log and 1.00 log and 0.62 log and 0.47 log"}, {"measurement": "Cellutolytic Bacteria, log (+)", "setting": "mean", "value": 0.40, "unit": "log"}]}
